# Results from patent US20240383900A1, “SUBSTITUTED PYRAZOLO [1,5-A]PYRIMIDINE-7-AMINE COMPOUNDS AS CDK INHIBITORS AND THEIR THERAPEUTIC USE” (Carrick Therapeutics Limited, priority 2021, published 2024).
# Where two headings read alike, the source gives them in different places.
# Tests used:
# A673 cells = assay: Cytotoxicity in A673 cells (Cell Titer Glo viability); type: cell-based; details: for Ratio of Biochemical Potency:Cellular Potency: CDK12 IC50 / A673 IC50; for IC50: Homo sapiens
# Protocol: Cells were plated in 96-well plates at a density of […] viable cells per well in 200 μL fully supplemented growth medium (DMEM+10% heat inactivated foetal bovine serum) and incubated for 24 hours in standard tissue culture conditions. Compounds, including MLN4924, were solubilised in DMSO and then diluted in fully supplemented growth medium at 2× their final assay concentration such that the final DMSO concentration was 0.1%. Growth medium in the assay plates was replaced with 50 μL of growth medium containing 2×MLN4924 (final assay concentration: 30 nM, where tested) or vehicle only and 50 μL of growth medium containing a 2× compound concentration series or vehicle only such that each compound was at 1× final assay concentration in 100 μL.
# Cells were then incubated for 72 hours in standard tissue culture conditions before viability was assessed using 50 μL Cell Titer Glo reagent (Promega) per well and luminescence measured on an EnVision plate reader. Data were normalised to vehicle control (100%) and cells treated with 0.1% Triton x-100 for 1 hour before viability measurement (0%; full cell kill). […] Viability curves generated in the presence of MLN4924 were normalised and fixed to controls treated with MLN4924.
# Human CDK12 wt/CycK = Human CDK12 wt/CycK (Homo sapiens (Human), UniProt Q9NYV4); assay: Radiometric protein kinase assay (33PanQinase Activity Assay), CDK12; type: biochemical; details: for CDK7/CDK12: ratio of CDK7 IC50 to CDK12 IC50, greater than 1 indicates selectivity for CDK12
# Human CDK12 wt/CycK, sequence (Q9NYV4 whole entry): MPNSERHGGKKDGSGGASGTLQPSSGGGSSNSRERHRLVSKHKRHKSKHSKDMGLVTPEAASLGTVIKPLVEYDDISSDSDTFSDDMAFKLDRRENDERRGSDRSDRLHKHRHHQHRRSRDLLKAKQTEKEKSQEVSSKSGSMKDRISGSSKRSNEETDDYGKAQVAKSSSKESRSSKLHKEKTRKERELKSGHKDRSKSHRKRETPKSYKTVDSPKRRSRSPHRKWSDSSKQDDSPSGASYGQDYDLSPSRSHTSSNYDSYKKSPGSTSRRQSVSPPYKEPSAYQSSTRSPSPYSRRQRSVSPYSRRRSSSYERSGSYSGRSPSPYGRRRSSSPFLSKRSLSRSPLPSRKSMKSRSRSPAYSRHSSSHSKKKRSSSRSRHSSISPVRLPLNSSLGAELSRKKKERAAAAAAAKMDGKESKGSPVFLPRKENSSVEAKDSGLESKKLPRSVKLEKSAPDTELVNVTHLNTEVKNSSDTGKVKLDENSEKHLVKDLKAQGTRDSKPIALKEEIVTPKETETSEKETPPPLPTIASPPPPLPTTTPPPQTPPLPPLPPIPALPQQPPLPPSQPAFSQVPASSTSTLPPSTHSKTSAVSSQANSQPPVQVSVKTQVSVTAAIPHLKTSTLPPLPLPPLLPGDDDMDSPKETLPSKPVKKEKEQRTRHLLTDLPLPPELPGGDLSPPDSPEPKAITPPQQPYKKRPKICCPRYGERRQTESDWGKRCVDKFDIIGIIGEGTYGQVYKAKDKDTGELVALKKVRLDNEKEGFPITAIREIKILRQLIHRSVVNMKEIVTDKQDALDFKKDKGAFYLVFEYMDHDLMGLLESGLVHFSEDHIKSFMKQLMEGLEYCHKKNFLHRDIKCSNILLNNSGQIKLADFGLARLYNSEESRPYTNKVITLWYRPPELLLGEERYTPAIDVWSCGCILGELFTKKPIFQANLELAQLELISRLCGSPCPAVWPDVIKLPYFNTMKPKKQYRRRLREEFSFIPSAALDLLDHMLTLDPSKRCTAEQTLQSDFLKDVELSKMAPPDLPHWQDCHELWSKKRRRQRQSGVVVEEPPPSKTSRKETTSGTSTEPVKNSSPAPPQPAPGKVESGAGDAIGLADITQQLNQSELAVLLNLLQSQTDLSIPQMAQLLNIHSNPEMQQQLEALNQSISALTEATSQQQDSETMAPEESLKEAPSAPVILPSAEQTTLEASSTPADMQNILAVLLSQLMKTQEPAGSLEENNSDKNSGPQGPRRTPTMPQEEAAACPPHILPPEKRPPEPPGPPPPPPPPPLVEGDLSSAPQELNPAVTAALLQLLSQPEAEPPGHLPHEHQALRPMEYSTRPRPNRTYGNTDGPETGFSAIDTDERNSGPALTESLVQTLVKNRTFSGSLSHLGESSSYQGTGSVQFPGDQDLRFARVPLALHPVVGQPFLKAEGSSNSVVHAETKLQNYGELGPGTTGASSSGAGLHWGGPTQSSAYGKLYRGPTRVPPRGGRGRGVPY
# Human CDK12 wt/CycK, sequence (O75909 whole entry partner): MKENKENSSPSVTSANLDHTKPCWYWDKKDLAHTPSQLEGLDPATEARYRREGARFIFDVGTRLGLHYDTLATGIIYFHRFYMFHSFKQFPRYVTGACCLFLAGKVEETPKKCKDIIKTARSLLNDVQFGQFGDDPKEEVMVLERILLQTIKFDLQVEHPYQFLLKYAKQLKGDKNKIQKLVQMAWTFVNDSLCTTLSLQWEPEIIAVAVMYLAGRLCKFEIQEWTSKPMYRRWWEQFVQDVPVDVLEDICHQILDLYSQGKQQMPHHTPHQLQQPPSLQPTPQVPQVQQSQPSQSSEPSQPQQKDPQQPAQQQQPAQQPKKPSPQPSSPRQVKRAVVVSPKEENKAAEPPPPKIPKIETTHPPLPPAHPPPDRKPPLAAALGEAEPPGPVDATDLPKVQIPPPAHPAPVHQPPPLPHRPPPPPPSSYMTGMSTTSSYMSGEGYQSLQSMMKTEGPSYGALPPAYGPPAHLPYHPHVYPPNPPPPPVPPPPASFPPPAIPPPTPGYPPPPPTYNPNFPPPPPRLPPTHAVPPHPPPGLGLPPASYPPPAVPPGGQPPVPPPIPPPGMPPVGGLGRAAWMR
# Protocol: (§1) A radiometric protein kinase assay (^33PanQinase® Activity Assay) was used for measuring the kinase activity of the two protein kinases (CDK12/CDK7). All kinase assays were performed in 96-well FlashPlates™ from PerkinElmer (Boston, MA, USA) in a 50 μL reaction volume.
# (§2) The reaction cocktail was pipetted in four steps in the following order: • 20 μL of assay buffer (standard buffer) • 5 μL of ATP solution (in H2O) • 5 μL of test compound (in 10% DMSO) • 10 μL of substrate/10 μL of enzyme solution (premixed)
# (§3) The reaction mixture was incubated at 30° C. for 60 min and then stopped by the addition of 2% (v/v) H3PO4. Plates were aspirated and washed two times with 200 μL 0.9% (w/v) NaCl. Incorporation of ^33Pi was determined with a microplate scintillation count (Microbeta, Wallac).
# The fitting method used was a least-squares fit.
# Human CDK7/CycH/MAT1 = Human CDK7/CycH/MAT1 (Homo sapiens (Human), UniProt P50613); assay: Radiometric protein kinase assay (33PanQinase Activity Assay), CDK7; type: biochemical; details: ATP 3 μM
# Human CDK7/CycH/MAT1, sequence (P50613 whole entry): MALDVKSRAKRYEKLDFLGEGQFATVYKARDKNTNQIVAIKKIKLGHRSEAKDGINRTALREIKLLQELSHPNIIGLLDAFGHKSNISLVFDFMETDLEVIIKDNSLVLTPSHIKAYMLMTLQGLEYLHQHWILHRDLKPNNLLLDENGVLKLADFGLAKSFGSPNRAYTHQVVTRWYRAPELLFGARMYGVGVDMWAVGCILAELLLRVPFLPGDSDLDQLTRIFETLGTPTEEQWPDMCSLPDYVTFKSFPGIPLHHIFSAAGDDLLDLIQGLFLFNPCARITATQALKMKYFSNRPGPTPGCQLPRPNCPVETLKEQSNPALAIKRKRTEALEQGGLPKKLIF
# Human CDK7/CycH/MAT1, sequence (P51946 whole entry partner): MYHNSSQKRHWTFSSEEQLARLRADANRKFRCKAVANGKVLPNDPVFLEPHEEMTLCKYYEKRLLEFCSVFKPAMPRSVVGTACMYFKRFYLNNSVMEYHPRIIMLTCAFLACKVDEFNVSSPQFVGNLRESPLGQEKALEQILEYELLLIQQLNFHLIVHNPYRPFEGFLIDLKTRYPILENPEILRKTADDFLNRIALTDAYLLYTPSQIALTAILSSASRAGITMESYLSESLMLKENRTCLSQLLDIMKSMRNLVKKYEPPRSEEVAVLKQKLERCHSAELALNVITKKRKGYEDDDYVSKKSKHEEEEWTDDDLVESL
# Human CDK7/CycH/MAT1, sequence (P51948 whole entry partner): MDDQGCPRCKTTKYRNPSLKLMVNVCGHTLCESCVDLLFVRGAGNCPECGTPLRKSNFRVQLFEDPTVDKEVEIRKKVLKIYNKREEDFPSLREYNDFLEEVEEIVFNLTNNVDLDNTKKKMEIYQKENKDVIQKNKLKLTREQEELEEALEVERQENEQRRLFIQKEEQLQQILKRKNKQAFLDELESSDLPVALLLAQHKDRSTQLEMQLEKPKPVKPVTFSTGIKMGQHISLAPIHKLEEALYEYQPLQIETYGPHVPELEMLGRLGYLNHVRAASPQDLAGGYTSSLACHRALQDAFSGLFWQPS
# Protocol: Additionally for the CDK7 assay: • Human CDK7/CycH/MAT1 (ProQinase, 0366-0360-4—Lot 2). • RBER-CHKtide (ProQinase, 0581-0000-5—Lot 106).
# as §1, §2
# For the CDK7 assay, a reaction mixture (50 μL) containing the following components was prepared: • 70 mM HEPES-NaOH (pH 7.5); • sodium orthovanadate (3 μM); • PEG-20000 (50 μg/mL); • DTT (1.2 mM); • MgCl2 (3 mM); • MnCl2 (3 mM); • purified human CDK7/CycH/MAT1 (3.3 nM—Lot 02); • RBER-CHKtide substrate (40 μg/mL—Lot 106); • ATP (3 μM); • [γ-33P]-ATP (approx. 8×10^5 cpm per well); and • test compound at the appropriate concentration such that the final concentration of DMSO was […].
# as §3
# The residual activities for each concentration and the compound IC50 values were calculated using Quattro Workflow V3.1.1 (Quattro Research GmbH, Munich, Germany). The fitting model for the IC50 determinations was “Sigmoidal response (variable slope)” with parameters “top” fixed at 100% and “bottom” at 0%. The fitting method used was a least-squares fit.
# [1] = A673, read-out: Cellular Potency IC50 (nM) (in A673 cells)
# [2] = A673 cells, 72 hours, read-out: A673 IC50
# [3] = ATP 0.3 μM, read-out: CDK12 IC50
# [4] = read-out: CKD12 Biochemical Potency IC50
SMILES,Ratio of Biochemical Potency:Cellular Potency (A673 cells),IC50 (A673 cells; [1]),IC50 (A673 cells; [2]),IC50 (Human CDK12 wt/CycK; [3]),CDK7/CDK12 (Human CDK12 wt/CycK),IC50 (Human CDK12 wt/CycK; [4]),IC50 (Human CDK7/CycH/MAT1)
O[C@H]1CNCC[C@@H]1CNc1cc(NCc2ccc(-c3ncccc3OC(F)(F)F)cc2)n2ncc(C3CC3)c2n1 [PPA-028],24.95,9.7 nM,9.7 nM,242 nM,1.9,242 nM,468 nM
O[C@H]1CNCC[C@@H]1CNc1cc(NCc2ccc(-c3ncccn3)cc2)n2ncc(C3CC3)c2n1 [PPA-029],45.00,1.4 nM,1.4 nM,63 nM,2.8,63 nM,179 nM
COc1cc(-c2ccccn2)ccc1CNc1cc(NC[C@H]2CCNC[C@@H]2O)nc2c(C3CC3)cnn12 [PPA-030],35.16,6.2 nM,6.2 nM,218 nM,1.7,218 nM,370 nM
O[C@H]1CNCC[C@@H]1CNc1cc(NCc2ccc(-c3ncco3)cc2)n2ncc(C3CC3)c2n1 [PPA-031],46.15,1.3 nM,1.3 nM,60 nM,2.6,60 nM,155 nM
c1ccc(-c2ccc(CNc3cc(NC[C@H]4CNCCO4)nc4c(C5CC5)cnn34)cc2)nc1 [PPA-032],22.52,51.5 nM,51.5 nM,1160 nM,2.4,1160 nM,2760 nM
c1ccc(-c2ccc(CNc3cc(N4CCOCC4)nc4c(C5CC5)cnn34)cc2)nc1 [PPA-033],19.81,53 nM,53 nM,1050 nM,6.3,1050 nM,6650 nM
O[C@H]1CNCC[C@@H]1CNc1cc(NCc2ccc(-c3ccccc3)cn2)n2ncc(C3CC3)c2n1 [PPA-034],10.71,11.3 nM,11.3 nM,121 nM,4.4,121 nM,530 nM
O[C@H]1CNCC[C@@H]1CNc1cc(NCc2ccc(-c3cscn3)cc2)n2ncc(C3CC3)c2n1 [PPA-035],28.89,1.8 nM,1.8 nM,52 nM,2.2,52 nM,113 nM
O[C@H]1CNCC[C@@H]1CNc1cc(NCc2ccc(-c3ncccc3C(F)(F)F)cc2)n2ncc(C3CC3)c2n1 [PPA-036],0.78,312 nM,312 nM,245 nM,1.6,245 nM,388 nM
c1ccc(-c2ccc(CNc3cc(N4CCNCC4)nc4c(C5CC5)cnn34)cc2)nc1 [PPA-038],18.55,6.2 nM,6.2 nM,115 nM,26.3,115 nM,3020 nM
FC1(F)CNCCC1CNc1cc(NCc2ccc(-c3ccccn3)cc2)n2ncc(C3CC3)c2n1 (stereo not shown) [PPA-041],10.92,17.3 nM,17.3 nM,189 nM,8.5,189 nM,1600 nM
c1ccc(-c2ccc(CNc3cc(N4CC5(CCNCC5)C4)nc4c(C5CC5)cnn34)cc2)nc1 [PPA-042],8.69,232 nM,232 nM,2020 nM,5.1,2020 nM,10300 nM
c1ccc(-c2ccc(CNc3cc(N[C@@H]4CCNC4)nc4c(C5CC5)cnn34)cc2)nc1 [PPA-043],18.54,13.7 nM,13.7 nM,254 nM,23.9,254 nM,6080 nM
c1ccc(-c2ccc(CNc3cc(N[C@@H]4CCCNC4)nc4c(C5CC5)cnn34)cc2)nc1 [PPA-045],11.27,33.2 nM,33.2 nM,374 nM,25.7,374 nM,9610 nM
CC(=O)N1CCC(CNc2cc(NCc3ccc(-c4ccccn4)cc3)n3ncc(C4CC4)c3n2)CC1 [PPA-046],12.38,305 nM,305 nM,3780 nM,>8,3780 nM,> 30000 nM
c1ccc(-c2ccc(CNc3cc(NC4CCNCC4)nc4c(C5CC5)cnn34)cc2)nc1 [PPA-048],12.06,6.8 nM,6.8 nM,82 nM,15.7,82 nM,1290 nM
OC1CCN(c2cc(NCc3ccc(-c4ccccn4)cc3)n3ncc(C4CC4)c3n2)CC1 [PPA-050],9.44,44.8 nM,44.8 nM,423 nM,24.8,423 nM,10500 nM
O=C1CC(CNc2cc(NCc3ccc(-c4ccccn4)cc3)n3ncc(C4CC4)c3n2)CCN1 (stereo not shown) [PPA-051],22.98,28.9 nM,28.9 nM,664 nM,16.9,664 nM,11200 nM
OC1CN(c2cc(NCc3ccc(-c4ccccn4)cc3)n3ncc(C4CC4)c3n2)C1 [PPA-052],<66.3,> 100 nM,> 100 nM,6630 nM,>4.5,6630 nM,> 30000 nM
CN(C[C@H]1CCNC[C@@H]1O)c1cc(NCc2ccc(-c3ccccn3)cc2)n2ncc(C3CC3)c2n1 [PPA-053],21.20,2.5 nM,2.5 nM,53 nM,3.2,53 nM,169 nM
O[C@H]1CNCC[C@@H]1CNc1cc(NCc2ccc(-c3nccs3)cc2F)n2ncc(C3CC3)c2n1 [PPA-054],18.15,2.7 nM,2.7 nM,49 nM,12.0,49 nM,589 nM
NC1CN(c2cc(NCc3ccc(-c4ccccn4)cc3)n3ncc(C4CC4)c3n2)C1 [PPA-057],24.65,50.3 nM,50.3 nM,1240 nM,10.7,1240 nM,13300 nM
c1ccc(-c2ccc(CNc3cc(O[C@@H]4CCCNC4)nc4c(C5CC5)cnn34)cc2)nc1 [PPA-061],18.30,5.3 nM,5.3 nM,97 nM,13.0,97 nM,1260 nM
FC1(CNc2cc(NCc3ccc(-c4ccccn4)cc3)n3ncc(C4CC4)c3n2)CCNCC1 [PPA-062],34.25,13.4 nM,13.4 nM,459 nM,7.9,459 nM,3640 nM
O[C@H]1CNCC[C@@H]1CNc1cc(NCc2ccc(-c3ccccc3)cc2F)n2ncc(C3CC3)c2n1 [PPA-066],7.13,24.4 nM,24.4 nM,174 nM,5.2,174 nM,912 nM
